From US10295551B2, “Development and use of fluorescent probes of unbound bilirubin” (Alan Marc Kleinfeld, priority 2011, dated 2019)

Assays:
[1] = molecular target: T1, human albumin (Homo sapiens, UniProt P02768); test: Bilirubin binding to a single human albumin site (bilirubin spiked plasma); conditions: prediction in good agreement with measured [Bf] in spiked pooled human plasma
T1 construct: Pooled human plasma (Golden West Biologicals) for which [albumin] was 620 μM was spiked with bilirubin; tissue Golden West Biologicals; host or cells: pooled human plasma
Description: Pooled human plasma (Golden West Biologicals) for which [albumin] was 620 μM was spiked with bilirubin to generate plasma samples with bilirubin/albumin ratios from of approximately 0 to 0.9. Measurements of [Bf] were carried out using BL22P1B1-Rh in either a Fluorolog3 (JY Horiba) using 10×10 mm cuvettes or in a FFAu Meter (FFA Sciences) modified for measuring unbound bilirubin by replacing emission filters with ones centered at […]. Measurements of [Bf] were also performed on the same samples using the peroxidase method of Jacobsen and Wennberg [Jacobsen J and Wennberg R P. Determination of unbound bilirubin in the serum of newborns. Clin Chem 20: 783, 1974].

[2] = molecular target: T2, rI-FABP (SEQ ID NO: 3) variant L61P8 B12, 8I 14L 18L 23L 27Y 30C 31V 53I 55W 72G 73T 74A 78V 82V 91Y 93M 102V 106W 115W 117L (Rattus norvegicus, UniProt P02693, A74T/D75A/F56W/F94M/G32V/G92Y/I24L/K28Y/L103V/L31C/L73G/L79V/M19L/Q116W/R107W/S54I/V9I/W83V/Y118L/Y15L); test: fatty acid binding to L61P8B12
T2 construct: 6xHis (C); made in house
Excerpt: (§1) The major (>75%) FFA species generated from Intralipid® are linoleic, oleic, palmitic and linolenic FFA. Because ADIFAB2 is most specific for stearic acid, for which Intralipid® contains only between 1.5 and 5.5%, FFAu probes with specificity for linoleic, oleic, palmitic and linolenic FFA will provide more accurate and sensitive detection of the rise in plasma FFAu due to Intralipid® hydrolysis. Such FFAu probes have been produced (Table 10) using the methods described in U.S. Pat. No. 7,601,510 and U.S. publication 2010/0298162 and in [Huber A H, Kampf J P, Kwan T, Zhu B and Kleinfeld A M. Fatty acid-specific fluorescent probes and their use in resolving mixtures of different unbound free fatty acids in equilibrium with albumin. Biochemistry 45: 14263-14274, 2006]. Sensitive FFAu probes are necessary for detecting the rise in the patient's FFAu levels, early in the titration of Intralipid®, which is critical for the prevention of unbound bilirubin and FFAu from reaching toxic levels.

[3] = molecular target: T3, rI-FABP (SEQ ID NO: 3) variant L19CP10C7, MGI-14R 18L 27C 71I 73F 117D (Rattus norvegicus, UniProt P02693, A74F/K28C/L73A/M19L/S72I/Y118D/Y15R); test: fatty acid binding to L19CP10C7
T3 construct: 6xHis (C); made in house
Excerpt: as §1

[4] = molecular target: T4, rI-FABP (SEQ ID NO: 3) variant L22P5E11, 38R 69T 72A 73K 106A (Rattus norvegicus, UniProt P02693, A70T/A74K/L39R/L73A/R107A); test: fatty acid binding to L22P5E11
T4 construct: 6xHis (C); made in house
Excerpt: as §1

[5] = molecular target: T5, rI-FABP (SEQ ID NO: 3) variant L119P3E5, 18V 27C 31A 72A 73W (Rattus norvegicus, UniProt P02693, A74W/G32A/K28C/L73A/M19V); test: fatty acid binding to L119P3E5
T5 construct: 6xHis (C); made in house
Excerpt: as §1

[6] = molecular target: T6, rI-FABP (SEQ ID NO: 3) variant ADIFAB2, 72A (Rattus norvegicus, UniProt P02693, L73A); test: fatty acid binding to ADIFAB2
T6 construct: 6xHis (C)
Excerpt: as §1

[7] = molecular target: rI-FABP (SEQ ID NO: 3) variant L4BP4B9, 73W 74S (Rattus norvegicus, UniProt P02693, A74W/D75S/L73A); test: fatty acid binding to L4BP4B9
Excerpt: as §1

[8] = molecular target: T7, rI-FABP (SEQ ID NO: 3) variant L138P1H8 N24C, MGI-18L 21L 23Y 24C 31I 55V 72S 73S 74G 76V 117H 128Y (Rattus norvegicus, UniProt P02693, A74S/D75G/F129Y/F56V/G32I/I24Y/L73S/M19L/M22L/N25C/T77V/Y118H); test: fatty acid binding to L138P1H8N24C
T7 construct: 6xHis (C); made in house
Excerpt: as §1

T6 sequence (P02693 with tags, fused parts or gaps L73A): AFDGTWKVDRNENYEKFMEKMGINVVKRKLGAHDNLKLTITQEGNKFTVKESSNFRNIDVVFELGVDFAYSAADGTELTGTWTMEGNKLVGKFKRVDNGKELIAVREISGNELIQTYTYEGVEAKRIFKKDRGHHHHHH
T5 sequence (P02693 with tags, fused parts or gaps M19V/K28C/G32A/L73A/A74W): as the sequence (P02693 with tags, fused parts or gaps L73A) above, with M18V, K27C, G31A, A73W counted along it
T7 sequence (P02693 with tags, fused parts or gaps with the stated changes): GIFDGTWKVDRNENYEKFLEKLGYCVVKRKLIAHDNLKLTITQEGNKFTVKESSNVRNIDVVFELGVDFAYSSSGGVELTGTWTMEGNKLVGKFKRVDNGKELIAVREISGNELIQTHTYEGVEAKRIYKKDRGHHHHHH
T3 sequence (P02693 with tags, fused parts or gaps Y15R/M19L/K28C/S72I/L73A/A74F/Y118D): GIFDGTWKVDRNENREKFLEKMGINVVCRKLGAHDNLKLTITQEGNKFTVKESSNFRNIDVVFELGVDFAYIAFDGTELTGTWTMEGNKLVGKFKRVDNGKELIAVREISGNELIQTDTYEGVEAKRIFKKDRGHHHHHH
T2 sequence (P02693 with tags, fused parts or gaps with the stated changes): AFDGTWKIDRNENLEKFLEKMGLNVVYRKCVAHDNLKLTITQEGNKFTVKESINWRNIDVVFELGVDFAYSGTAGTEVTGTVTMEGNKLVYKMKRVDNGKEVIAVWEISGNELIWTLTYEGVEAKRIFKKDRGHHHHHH
T4 sequence (P02693 with tags, fused parts or gaps L39R/A70T/L73A/A74K/R107A): as the sequence (P02693 with tags, fused parts or gaps L73A) above, with L38R, A69T, A73K, R106A counted along it
Sequence of rI-FABP (SEQ ID NO: 3) variant L4BP4B9, 73W 74S (P02693 with tags, fused parts or gaps L73A/A74W/D75S): as the sequence (P02693 with tags, fused parts or gaps L73A) above, with A73W, D74S counted along it
T1 sequence (P02768 25-609): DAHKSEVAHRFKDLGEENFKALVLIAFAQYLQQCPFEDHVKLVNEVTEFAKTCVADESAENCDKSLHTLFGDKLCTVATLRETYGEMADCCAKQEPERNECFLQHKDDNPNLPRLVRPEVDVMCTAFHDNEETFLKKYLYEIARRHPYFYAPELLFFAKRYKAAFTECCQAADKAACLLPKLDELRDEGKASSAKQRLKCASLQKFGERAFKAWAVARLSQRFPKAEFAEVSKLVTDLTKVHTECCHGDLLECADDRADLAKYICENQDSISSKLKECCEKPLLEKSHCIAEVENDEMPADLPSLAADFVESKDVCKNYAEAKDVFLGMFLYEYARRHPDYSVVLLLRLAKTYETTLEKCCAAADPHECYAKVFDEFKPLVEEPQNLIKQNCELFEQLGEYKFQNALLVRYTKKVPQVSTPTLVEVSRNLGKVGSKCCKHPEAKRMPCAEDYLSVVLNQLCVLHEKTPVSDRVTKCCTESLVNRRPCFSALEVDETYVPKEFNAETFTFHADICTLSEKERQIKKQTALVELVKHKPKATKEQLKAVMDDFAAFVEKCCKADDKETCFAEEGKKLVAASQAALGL

| SMILES | Kd [1] [µM] | Kd [2] [µM] | Kd [3] [µM] | Kd [4] [µM] | Kd [5] [µM] | Kd [6] [µM] | Kd [7] [µM] | Kd [8] [µM] |
| --- | --- | --- | --- | --- | --- | --- | --- | --- |
| C=CC1=C(C)/C(=C/c2[nH]c(Cc3[nH]c(/C=C4\NC(=O)C(C)=C4C=C)c(C)c3CCC(=O)O)c(CCC(=O)O)c2C)NC1=O [Bilirubin, unconjugated bilirubin IXα] | 0.02 |  |  |  |  |  |  |  |
| CCCCC/C=C\C/C=C\CCCCCCCC(=O)O [Linoleate 18:2 (n-6), Linoleate] |  | 0.0257 | 0.0008 | 0.0067 | 0.023 | 0.105 | 0.0408 | 0.0065 |
| CCCCCCCC/C=C\CCCCCCCC(=O)O [Oleate 18:1 (n-9), Oleate] |  | 0.0043 | 0.0012 | 0.0031 | 0.0127 | 0.0215 | 0.0189 | 0.0076 |
